Assay results from article PMC8588511, “Chromane Derivatives from Underground Parts of Iris tenuifolia and Their In Vitro Antimicrobial, Cytotoxicity and Antiproliferative Evaluation” (Molecules, 2021).
Where two headings read alike, the source gives them in different places.

How the values were obtained:
[1] = system: Pseudomonas aeruginosa (K799/61 B9); assay: agar diffusion antimicrobial assay; assay type: cell-based; settings: Pseudomonas aeruginosa (K799/61 B9); 50 μL of 1 mg/mL in DMSO, 18 h; ciprofloxacin 5 µg/mL
Method: (§1) Compounds 1, 2, 3, 5, 9, and 10 were tested for their antimicrobial activities against S. aureus (JMRC:STI 10760), B. subtilis (JMRC:STI 10880), S. aureus MRSA (JMRC: ST 33793) E. faecalis VRE (JMRC: ST 33700), E. coli (JMRC:ST 33699), P. aeruginosa (JMRC:ST 33771), P. aeruginosa (JMRC:ST 33772), M. vaccae (JMRC:STI 10670), S. salmonicolor (JMRC:ST 35974), C. albicans (JMRC:STI 25000), and P. notatum (JMRC:STI 50164)) using agar diffusion assay as previously published. Strains were obtained from the Jena Microbial Resource Collection (JMRC). The bacteria were cultivated on standard I nutrient agar in Petri dishes at 37 °C. Antifungal bioassays were conducted at 30 °C using the basidiomycetous yeast S. salmonicolor and the filamentous ascomycete P. notatum, which were cultivated on malt agar, and the ascomycetous yeast C. albicans, which was cultivated on yeast morphology agar. After inoculation of the test organisms, a disc (9 mm in diameter) was removed from the center of the Petri dish and 50 μL of the test solution (1 mg/mL in DMSO) was added to the cavity. After 18 h of incubation, the inhibiting areola were measured and documented as diameters in mm. Ciprofloxacin (5 µg/mL in deionized water) and amphotericin B (10 µg/mL in DMSO/MeOH 1:1) were used as reference substances against bacterial and fungal strains, respectively.

[2] = system: Enterococcus faecalis (VRE 1528 R10); assay: agar diffusion antimicrobial assay; assay type: cell-based; settings: for zone of inhibition at 1000 µg/mL: Enterococcus faecalis (VRE 1528 R10), 50 μL of 1 mg/mL in DMSO, 18 h, ciprofloxacin 5 µg/mL, read-out: Inhibition Zone of Test Microorganism; for antibacterial activity in words: Enterococcus faecalis VRE, agar diffusion
Method: as §1

[3] = system: Pseudomonas aeruginosa (SG137 B7); assay: agar diffusion antimicrobial assay; assay type: cell-based; settings: 50 μL of 1 mg/mL in DMSO, 18 h, ciprofloxacin 5 µg/mL
Method: as §1

[4] = system: Staphylococcus aureus (MRSA 134/94 R9); assay: agar diffusion antimicrobial assay; assay type: cell-based; settings: 50 μL of 1 mg/mL in DMSO, 18 h, ciprofloxacin 5 µg/mL
Method: as §1

[5] = system: human chronic myeloid leukemia cells (K-562); assay: antiproliferation assay (CellTiter-Blue); assay type: cell-based; settings: for GI50: Homo sapiens, read-out: Antiproliferative Effect, GI50 (CI 95%)
Method: (§2) In this assay, K-562 (DSM ACC 10), THP-1 (DSM ACC 16), and HeLa (DSM ACC 57) were maintained in Roswell Park Memorial Institute (RPMI) 1640 medium (Cambrex 12-167F) while HUVEC (ATCC CRL-1730) and A549 (DSM ACC 107) were cultured in Dulbecco’s Modified Eagle’s Medium (DMEM) (Cambrex 12-614F). Cells that were grown in the appropriate cell culture medium were supplemented with 10 mL/L ultraglutamine 1 (Cambrex 17-605E/U1), 550 µL/L (50 mg/mL) gentamicin sulfate (Cambrex 17-518Z), and 10% heat inactivated fetal bovine serum (GIBCO Life Technologies 10270-106) at 37 °C. The tested compounds were dissolved in DMSO, and the cells were seeded in 96-well plates at a density of 1 × 10^4 cells/well. As for the antiproliferative effect of the compounds, the cells were incubated for 72 h, and GI50 values were evaluated to be defined as the concentration causing 50% inhibition of proliferation compared to the untreated control. With regard to the cytotoxic assay, HeLa cells were pre-incubated for 48 h without the test compounds. Then, the cells were exposed with different concentrations of compounds and incubated for 72 h. After that, the adherent HeLa cells were fixed by glutaraldehyde and stained with a 0.05% solutions of methylene blue (SERVA 29198) for 15 min. CC50 was evaluated to be defined as the concentration required for the death of 50% of the cell monolayer as compared to control groups. Under our experimental conditions, the optical density measured from the CellTiter-Blue reagent and methylene blue assay is proportional to the number of viable cells. In this experiment, absorbances were measured at 570 nm against the reference wavelength of 600 nm (CellTiter-Blue assay) and at 660 nm (methylene blue assay). Doxorubicin (Adriamycin®) and imatinib (Gleevec®) were used as positive controls for HUVEC, K-562, and HeLa cells. A repeat determination has been conducted in all experiments, and four replicates were assayed. The calculations of the different values of GI50 and CC50 were performed with software Magellan version 3.00 (Tecan Trading AG, Maennedorf, Switzerland).

[6] = system: human acute monocytic leukemia cells (THP-1); assay: antiproliferation assay (CellTiter-Blue); assay type: cell-based
Method: as §2

[7] = system: human umbilical vein endothelial cells (HUVEC); assay: antiproliferation assay (CellTiter-Blue); assay type: cell-based; settings: Homo sapiens, 72 h, read-out: Antiproliferative Effect, GI50 (CI 95%)
Method: as §2

[8] = system: human lung carcinoma cells (A549); assay: antiproliferation assay (CellTiter-Blue); assay type: cell-based
Method: as §2

[9] = cytotoxicity assay (methylene blue); assay type: cell-based, human; settings: human, HeLa, 72 h, read-out: Cytotoxicity CC50 (CI 95%)
Method: as §2

[10] = system: Bacillus subtilis (6633 B1); assay: agar diffusion antimicrobial assay; assay type: cell-based; settings: for zone of inhibition at 1000 µg/mL: Bacillus subtilis (6633 B1), 50 μL of 1 mg/mL in DMSO, 18 h, ciprofloxacin 5 µg/mL, read-out: Inhibition Zone of Test Microorganism
Method: as §1

[11] = system: Mycobacterium vaccae (10670 M4); assay: agar diffusion antimicrobial assay; assay type: cell-based; settings: for antibacterial activity in words: Mycobacterium vaccae, agar diffusion, compared to ciprofloxacin; for zone of inhibition at 1000 µg/mL: Mycolicibacterium vaccae, Mycobacterium vaccae (10670 M4), 50 μL of 1 mg/mL in DMSO, 18 h, ciprofloxacin 5 µg/mL, read-out: Inhibition Zone of Test Microorganism
Method: as §1

[12] = system: three fungi and eight bacterial strains; assay: agar diffusion assay, whole panel; assay type: cell-based; settings: eleven microorganisms
Method: as §1

[13] = system: HUVEC, K-562, THP-1, A549, and HeLa cell lines; assay: antiproliferative and cytotoxicity assays, all applied cell lines; assay type: cell-based
Method: The tested compounds were dissolved in DMSO, and the cells were seeded in 96-well plates at a density of 1 × 10^4 cells/well. […] With regard to the cytotoxic assay, HeLa cells were pre-incubated for 48 h without the test compounds. Then, the cells were exposed with different concentrations of compounds and incubated for 72 h. […] Under our experimental conditions, the optical density measured from the CellTiter-Blue reagent and methylene blue assay is proportional to the number of viable cells. In this experiment, absorbances were measured at 570 nm against the reference wavelength of 600 nm (CellTiter-Blue assay) and at 660 nm (methylene blue assay). […] A repeat determination has been conducted in all experiments, and four replicates were assayed. The calculations of the different values of GI50 and CC50 were performed with software Magellan version 3.00 (Tecan Trading AG, Maennedorf, Switzerland).

[14] = Homo sapiens, THP-1, 72 h; read-out: Antiproliferative Effect, GI50 (CI 95%)
[15] = Homo sapiens, A549, 72 h; read-out: Antiproliferative Effect, GI50 (CI 95%)

Row | Compound | GI50 ([5]; K562, K-562, 72 h) [µM] | Inhibition Zone of Test Microorganism [1] | zone of inhibition at 1000 µg/mL [2] [mm] | antibacterial activity in words [2] | Inhibition Zone of Test Microorganism [3] | Inhibition Zone of Test Microorganism [4] | GI50 [6, 14] [µM] | GI50 [7] [µM] | GI50 [8, 15] [µM] | CC50 at 72 h ([9]; HeLa cells (DSM ACC 57)) [µM] | antiproliferative / cytotoxic effect in words [13] | further results
1 | O=C1C=CCCC(O)C2CC(=O)c3c(O)cc(cc3O2)OC2OC(CO1)C(O)C(O)C2O (stereo not drawn) [Compound 1, Moniristenulide] | > 100 | - | 13 | selective activity | - | - | > 100 | > 100 | > 100 | > 100 |  | 
2 | COc1c2c(cc3c1C1CC(O3)c3ccccc3O1)OCO2 (stereo not drawn) [Compound 2, 5-Methoxy-6,7-methylenedioxy-4-O-2′-cycloflavan] | 31.5 | - | 14 | demonstrated activity | - | - | 29.2 | 35.2 | > 100 | 42.6 |  | zone of inhibition at 1000 µg/mL [10]: 12 mm; antibacterial activity in words ([10]; Bacillus subtilis, agar diffusion, compared to ciprofloxacin): demonstrated activity; antibacterial activity in words [11]: demonstrated activity; zone of inhibition at 1000 µg/mL [11]: 17 mm
3 | O=C1C[C@@H](c2cccc(O)c2O)Oc2cc(O)cc(O)c21 [Compound 3, (2S)-5,7,2′,3′-Tetrahydroxyflavanone] | 32.3 | - | 17 | highest antibacterial activity | - | - | > 100 | > 100 | > 100 | > 100 |  | zone of inhibition at 1000 µg/mL [10]: 12 mm; antibacterial activity in words [11]: highest antibacterial activity; zone of inhibition at 1000 µg/mL [11]: 23 mm; antiproliferative activity in words ([5]; K-562): selective antiproliferative inhibition effect; antimicrobial activity over the panel in words [12]: most active
4 | COc1cc2occ(-c3ccccc3OC3OC(CO)C(O)C(O)C3O)c(=O)c2c(O)c1OC [Compound 9, 5-Hydroxy-6,7-dimethoxyisoflavone-2′-O-β-D-glucopyranoside] | > 100 | - | 13 | selective activity | - | - | > 100 | > 100 | > 100 | > 100 | completely not effective | 
5 | CC[C@H](CC[C@@H](C)[C@H]1CC[C@H]2[C@@H]3CC=C4C[C@@H](O)CC[C@]4(C)[C@H]3CC[C@]12C)C(C)C [Compound 12, β-Sitosterol] |  |  |  |  |  |  |  | > 100 |  |  | neither an antiproliferative effect nor a cytotoxicity | GI50 ([5]; K562, 72 h): > 100 µM; GI50 ([6]; Homo sapiens, THP-1, 72 h, read-out: Antiproliferative Effect, GI50 (CI 95%)): > 100 µM; GI50 ([8]; Homo sapiens, A549, 72 h, read-out: Antiproliferative Effect, GI50 (CI 95%)): > 100 µM; CC50 at 72 h [9]: > 100 µM

The next lines start with results.

Row | GI50 ([5]; K562, K-562, 72 h) [µM] | Compound | Inhibition Zone of Test Microorganism [1] | zone of inhibition at 1000 µg/mL [2] [mm] | antibacterial activity in words [2] | Inhibition Zone of Test Microorganism [3] | Inhibition Zone of Test Microorganism [4] | GI50 [6, 14] [µM] | GI50 [7] [µM] | GI50 [8, 15] [µM] | CC50 at 72 h ([9]; HeLa cells (DSM ACC 57)) [µM] | antiproliferative / cytotoxic effect in words [13] | further results
6 | 48.7 | O=C1CC(c2ccccc2O)Oc2cc3c(c(O)c21)OCO3 (stereo not drawn) [Compound 4, 5,2′-Dihydroxy-6,7-methylenedioxyflavanone] |  |  |  |  |  | 16 | 73.3 | 81 | > 100 |  | 
7 | 56 | COc1cc(O)c2c(c1)OC(c1cccc(O)c1O)CC2=O (stereo not drawn) [Compound 6, 5,2′,3′-Trihydroxy-7-methoxyflavanone] |  |  |  |  |  | 16.9 | 68.2 | 70.9 | > 100 |  | 
8 | 97.6 | COc1cc(O)c2c(c1)OC(c1cccc(O)c1OC)C(O)C2=O (stereo not drawn) [Compound 7, 3,5,3′-Trihydroxy-7,2′-dimethoxyflavanone] |  |  |  |  |  | > 100 | > 100 | > 100 | > 100 | reduced or no inhibitory effects | 
9 | > 100 | COc1ccccc1-c1coc2cc(O)c(OC)c(O)c2c1=O [Compound 8, 5,7-Dihydroxy-6,2′-dimethoxyisoflavone] |  |  |  |  |  | > 100 | > 100 | > 100 | > 100 | reduced or no inhibitory effects | 
10 | 0.13 | COc1cccc2c1C(=O)c1c(O)c3c(c(O)c1C2=O)C[C@@](O)(C(=O)CO)C[C@@H]3O[C@H]1C[C@H](N)[C@H](O)[C@H](C)O1 [Doxorubicin, reference compound] |  |  |  |  |  |  | 0.13 |  | 0.48 |  | 
11 | 0.2 | Cc1ccc(NC(=O)c2ccc(CN3CCN(C)CC3)cc2)cc1Nc1nccc(-c2cccnc2)n1 [Imatinib, imatinib, reference compound] |  |  |  |  |  |  | 22.1 |  | 78.6 |  | 
